{
  "source": "patent US12091386B2",
  "about": "“D-amphetamine compounds, compositions, and processes for making and using the same” (Zevra Therapeutics, Inc., priority 2018, dated 2024)",
  "assay": "Intravenous pharmacokinetic study in rats (tail vein injection)",
  "type": "in vivo, rat",
  "conditions": "FIG. 10, versus isonicotinate analogue",
  "data": [
    {"compound": "CCOC(=O)c1ccc[n+](COC(=O)N[C@@H](C)Cc2ccccc2)c1", "note": "[AMP-CO2CH2-nicotinate(Et), d-amphetamine-CO2CH2-nicotinate ethyl ester]", "values": [
      {"measurement": "exposure to d-amphetamine after intravenous administration compared to AMP-CO2CH2-isonicotinate(Et)", "value": "decreases exposure to d-amphetamine"}
    ]}
  ]
}
